From patent US20070060615A1, “Method of Modulating Apoptosis Through Modulation of E2F1” (University of South Florida, priority 2003, published 2007)

What was measured:
Bcl-2 = experiment: Western blot of Bcl-2 in H1299 cells; type: cell-based, human; settings: H1299, 200 nM
wild-type NIH3T3 cells = experiment: Apoptosis by Apo-BrdUrd in wild-type NIH3T3 cells; type: cell-based, murine; settings: 200 nM, 48 and 72 hours, FIG. 5C
Description: (§1) Apoptosis was assayed using PharMingen “APO-BrdU” kit without modification. After treatment with flavopiridol, cells were trypsinized and resuspended in PBS. Cells were counted and 1-2×10^6 cells were fixed in 1% paraformaldehyde in PBS on ice, pelleted, washed twice in PBS, and fixed with ice-cold 70% ethanol overnight. The next day, cells were pelleted, resuspended, and washed with wash buffer. Pelleted cells were resuspended with reaction buffer, TdT enzyme, and bromo-dUTP for 1 hour at 37° C. Cells were subsequently rinsed with 1.0 ml of PBS and resuspended with fluorescein-labeled anti-BrdUrd in the dark for 30 min at room temperature. Propidium iodide and RNase were added, and the cells were incubated for 30 min. One×10^4 cells per experimental condition were analyzed for fluorescence on a Becton-Dickinson FACScan using Cell Quest software.

Bok = experiment: Western blot of Bok in H1299 cells; type: cell-based, human; settings: H1299, 200 nM
Mcl-1 mRNA = experiment: Northern blot of endogenous Mcl-1 mRNA in wild-type NIH3T3 cells; type: cell-based, murine; settings: wild-type 3T3 cells, total RNA, FIG. 5B
Description: (§2) Cell lysates were normalized for total protein content (50 μg) and subjected to SDS-PAGE as described previously. Primary antibodies used in these studies consisted of E2F1 (SantaCruz Biotechnology; SC-251), Mcl-1 (Santa Cruz; SC-819), Rb (PharMingen; 14031A), Flag (Sigma; F-3615) and β-actin (Sigma; A5441). Detection of proteins was accomplished using horseradish-peroxidase-conjugated secondary antibodies and enhanced chemiluminescence (ECL) purchased through Amersham. Northern blots were performed as described previously.

[1] = tested on: H1299 cells lacking E2F1 protein; experiment: Apoptosis by Apo-BrdUrd in E2F1 knockdown H1299 cells; type: cell-based, human; settings: 200 nM, 48 and 72 h, FIG. 6B
Description: (§3) To generate E2F1 knockdown cell lines H1299 cells were transfected by the calcium phosphate method either with empty BS/U6 RNAi vector or with BS/U6-E2F1 RNAi vector together with pcDNA-3, which encodes a neomycin-selectable marker. Forty-eight hours after transfection, cells were split and cultured in medium containing 400 μg/ml G418. Colonies that emerged from G418 selection were propagated and screened for E2F1 expression by Western blot. Several lines were isolated that had reduced E2F1 expression; the most efficient knockdown cell line, H1299-E2F1RNAi-16, was further characterized. A matching H1299-pBS/U6 cell line was generated in the same way.
(§4) Apoptosis was assayed using PharMingen “APO-BrdU” kit without modification. After treatment with flavopiridol, cells were trypsinized and resuspended in PBS. Cells were counted and 1-2×10^6 cells were fixed in 1% paraformaldehyde in PBS on ice, pelleted, washed twice in PBS, and fixed with ice-cold 70% ethanol overnight. The next day, cells were pelleted, resuspended, and washed with wash buffer. Pelleted cells were resuspended with reaction buffer, TdT enzyme, and bromo-dUTP for 1 hour at 37° C. […] One×10^4 cells per experimental condition were analyzed for fluorescence on a Becton-Dickinson FACScan using Cell Quest software.

Rb = Rb Western blot (Rb phosphorylation) in H1299 cells; type: cell-based, human; settings: H1299, 200 nM, time course FIG. 3A
Description: as §2

[2] = tested on: E2F1 null mouse embryo fibroblasts; experiment: Apoptosis by Apo-BrdUrd in E2F1 null mouse embryo fibroblasts; type: cell-based; settings: 200 nM, 72 hours, FIG. 6C
Description: (§5) The H1299 non-small cell lung cancer line are grown in DMEM supplemented with 2 mM L-glutamine (Life Technologies, Inc.), 5% fetal bovine serum (Hyclone), and 1% penicillin/streptomycin (Life Technologies, Inc.). NIH3T3 cells constitutively expressing human Mcl-1 were created by transfecting cells with pcDNA-3-Mcl-1 and selecting for transformants in the presence of 400 μg/ml G418. Mouse embryo fibroblasts from E2F1-null animals were grown in DMEM with 15% fetal bovine serum and 1% penicillin/streptomycin. […] The drug was diluted directly into the medium to indicated concentrations followed by incubation at 37° C. Untreated cells and cells treated with DMSO alone behaved identically.
as §4

Mcl-1 [3] = experiment: Western blot of Mcl-1 in E2F1 knockdown H1299 cells; type: cell-based, human; settings: E2F1 knockdown H1299, 8 hours, FIG. 6A
Description: as §3, §2

E2F1 = experiment: Western blot of E2F1 in H1299 cells; type: cell-based, human
Description: as §5, with “identically. Cell lysates were normalized for total protein content (50 μg) and subjected to SDS-PAGE as described previously. Primary antibodies used in these studies consisted of E2F1 (SantaCruz Biotechnology; SC-251), Mcl-1 (Santa Cruz; SC-819), Rb (PharMingen; 14031A), Flag (Sigma; F-3615) and β-actin (Sigma; A5441). Detection of proteins was accomplished using horseradish-peroxidase-conjugated secondary antibodies and enhanced chemiluminescence (ECL) purchased through Amersham. Northern blots were performed as described previously.” for “identically.”

[4] = tested on: H1299-Mcl-1-11 and H1299-Mcl-1-13 cells; experiment: Apoptosis by Apo-BrdUrd in H1299 cells stably expressing human Mcl-1; type: cell-based; settings: 200 nM, 48, 72 and 96 hours, FIG. 4B
Description: H1299 cells lines, constitutively expressing human Mcl-1 under control of the CMV promoter, were obtained by transfecting cells with pcDNA3 or pcDNA3-Mcl-1 and selecting for transformants by growth in 400 μg/ml G418. G418-resistant lines were screened for expression of human Mcl-1. Two Mcl-1-positive cell lines emerged and were characterized. A matching G418-resistant H1299-pcDNA3 cell line was generated in the same way. Apoptosis was assayed using PharMingen “APO-BrdU” kit without modification. After treatment with flavopiridol, cells were trypsinized and resuspended in PBS. Cells were counted and 1-2×10^6 cells were fixed in 1% paraformaldehyde in PBS on ice, pelleted, washed twice in PBS, and fixed with ice-cold 70% ethanol overnight. The next day, cells were pelleted, resuspended, and washed with wash buffer. Pelleted cells were resuspended with reaction buffer, TdT enzyme, and bromo-dUTP for 1 hour at 37° C. Cells were subsequently rinsed with 1.0 ml of PBS and resuspended with fluorescein-labeled anti-BrdUrd in the dark for 30 min at room temperature. Propidium iodide and RNase were added, and the cells were incubated for 30 min. One×10^4 cells per experimental condition were analyzed for fluorescence on a Becton-Dickinson FACScan using Cell Quest software.

human Mcl-1 = experiment: Western blot of Mcl-1 in NIH3T3 cells stably expressing human Mcl-1; type: cell-based, murine; settings: 200 nM, up to 72 hours, FIG. 5A
Description: as §5, with “identically. Cell lysates were normalized for total protein content (50 μg) and subjected to SDS-PAGE as described previously. Primary antibodies used in these studies consisted of E2F1 (SantaCruz Biotechnology; SC-251), Mcl-1 (Santa Cruz; SC-819), Rb (PharMingen; 14031A), Flag (Sigma; F-3615) and β-actin (Sigma; A5441). Detection of proteins was accomplished using horseradish-peroxidase-conjugated secondary antibodies and enhanced chemiluminescence (ECL) purchased through Amersham. Northern blots were performed as described previously.” for “identically.”

[5] = tested on: H1299 lung carcinoma cells; experiment: Apoptosis by Apo-BrdUrd incorporation in H1299 cells; type: cell-based, human
Description: as §5, §1

[6] = tested on: NIH3T3 cells stably expressing human Mcl-1; experiment: Apoptosis by Apo-BrdUrd in NIH3T3 cells stably expressing Mcl-1; type: cell-based, murine; settings: 200 nM, 72 hours, FIG. 5C
Description: as §5, §4

Mcl-1 [7] = experiment: Western blot of Mcl-1 in H1299 cells; type: cell-based, human
Description: as §5, with “identically. Cell lysates were normalized for total protein content (50 μg) and subjected to SDS-PAGE as described previously. Primary antibodies used in these studies consisted of E2F1 (SantaCruz Biotechnology; SC-251), Mcl-1 (Santa Cruz; SC-819), Rb (PharMingen; 14031A), Flag (Sigma; F-3615) and β-actin (Sigma; A5441). Detection of proteins was accomplished using horseradish-peroxidase-conjugated secondary antibodies and enhanced chemiluminescence (ECL) purchased through Amersham. Northern blots were performed as described previously.” for “identically.”

[8] = H1299, 200 nM, 12 hours, extended time course FIG. 3A
[9] = H1299, increasing doses, 48 hours, FIG. 1A

For `CN1CC[C@H](c2c(O)cc(O)c3c(=O)cc(-c4ccccc4Cl)oc23)[C@H](O)C1` [flavopiridol], the Bcl-2 levels (Bcl-2) was “No changes”, the “Apoptosis in wild-type NIH3T3 (pcDNA3 alone)” value (wild-type NIH3T3 cells) was “undergoes apoptosis starting after 48 hours but is more pronounced after 72 hours of treatment” and the Bok levels (Bok) was “No changes”. The “Time within which endogenous Mcl-1 levels are reduced” value (Mcl-1 mRNA) was at most 6 h, the “Apoptosis in H1299 cells lacking E2F1 compared with empty RNAi vector cells” value [1] was “less sensitive to flavopiridol-induced cell death” and the Rb phosphorylation (Rb) was “no changes in Rb phosphorylation”. The “Apoptosis in mouse embryo fibroblast lines lacking E2F1 compared with wild-type littermates” value [2] was “less sensitive to flavopiridol-induced cell death”, the “Mcl-1 protein levels in H1299 cells lacking E2F1” value (Mcl-1 [3]) was “decreased in a manner identical to that of the control cells” and the “E2F1 levels after 12 hours” value (E2F1; [8]) was “E2F1 levels had risen”. The “E2F1 levels after 72 hours” value (E2F1; H1299, 200 nM, 72 hours, FIG. 3A) was “E2F1 levels fell”, the “Time after which E2F1 levels reached a plateau” value (E2F1; H1299, 200 nM, FIG. 2A) was 9 h and the “Time after which increases in E2F1 protein are apparent” value (E2F1; H1299, 200 nM, FIG. 2A) was 3 h. The “E2F1 protein levels, dose response” value (E2F1; [9]) was “markedly elevated starting at the 100-nM dose”, the “Apoptosis in stably transfected Mcl-1 clones compared with control cells” value [4] was “resistant to apoptosis induced by flavopiridol” and the “Human Mcl-1 protein levels in stably transfected NIH3T3 cells” value (human Mcl-1) was “no changes are seen in the levels of Mcl-1”. The “Apoptosis after 48 and 72 hours” value ([5]; H1299, 200 nM, 48 and 72 hours, FIG. 3B) was “larger degrees of apoptosis”, the “Apoptosis after 24 hours” value ([5]; H1299, 200 nM, 24 hours, FIG. 3B) was “Minimal levels of apoptosis” and the “Apoptosis at 36 hours” value ([5]; H1299, 200 nM, 36 hours, FIG. 3B) was “apoptosis was evident”. For the same compound, the “Apoptosis at times <18 hours” value ([5]; H1299, 200 nM, <18 hours, FIG. 2B) was “minimal effect on apoptosis”, the “Apoptosis (Apo-BrdUrd incorporation), dose response” value ([5]; H1299, 48 hours of treatment, FIG. 1B) was “minimal elevations in apoptosis, as measured by Apo-BrdUrd incorporation, are seen until a dose of 200 nM was reached” and the “Apoptosis in NIH3T3 stably expressing Mcl-1” value [6] was “minimal increases in apoptosis”. For the same compound, the “Mcl-1 protein levels at 200 nM and higher doses” value (Mcl-1 [7]; H1299, 200 nM and higher, 48 hours, FIG. 1A) was “undetectable”, the “Mcl-1 levels after 12 hours” value (Mcl-1 [7]; [8]) was “undetectable” and the “Mcl-1 levels by 36 hours” value (Mcl-1 [7]; H1299, 200 nM, 36 hours, FIG. 3A) was “Low levels of Mcl-1 were apparent”. The “Time after which Mcl-1 levels began to fall” value (Mcl-1 [7]; H1299, 200 nM, FIG. 2A) was 3 h, the “Time after which Mcl-1 levels were maximally reduced” value (Mcl-1 [7]; H1299, 200 nM, FIG. 2A) was 12 h and the “Mcl-1 protein levels, dose response” value (Mcl-1 [7]; [9]) was “significantly reduced starting at the 100-nM dose”.
